# Measured values taken from PubChem BioAssay (NCI).
#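 Cells were grown in 96-well plates and exposed to each compound for 48 hours at five concentrations; endpoints were interpolated linearly between bracketing concentrations, or set to the highest concentration if not reached. The concentration for 50% growth inhibition is given as GI50. At the TGI there is no net growth.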 Starred links: 1 amine or outer side, 2 acyl side, 3 side chain; linkers in the order of their positions; H or OH if unused. Non-standard residues stand in square brackets, D forms with d. Residues, ends and D or L forms follow the SMILES beside them. *: point of attachment. X14 = C/C=C/CC(C)C(O)[C@H](N[*:1])C(=O)[*:2]; Decanoyl = CCCCCCCCCC(=O)*; Leu(ol) = CC(C)C[C@H](N)CO; Iva = CC[C@](C)(N)C(=O)O; Aib = CC(C)(N)C(=O)O
# Assays:
# Test in all cases: growth of human tumour cells (NCI), 48 h
# [1] = test system: SK-MEL-5 melanoma
# [2] = test system: SK-MEL-28 melanoma
# [3] = test system: UACC-62 melanoma
# [4] = test system: 786-0 renal
# [5] = test system: HT29 colon
# [6] = test system: TK-10 renal
# [7] = test system: SF-268 CNS
# [8] = test system: HOP-92 NSCLC
# [9] = test system: HS 578T breast
# [10] = test system: UO-31 renal
# [11] = test system: OVCAR-4 ovarian
# [12] = test system: ACHN renal
# [13] = test system: A498 renal
# [14] = test system: OVCAR-5 ovarian
# [15] = test system: HCT-15 colon
# [16] = test system: A549 NSCLC
# [17] = test system: KM12 colon
# [18] = test system: M14 melanoma
# [19] = test system: HCT-116 colon
# [20] = test system: MOLT-4 leukemia
# [21] = test system: IGROV1 ovarian
# [22] = test system: RPMI-8226 leukemia
# [23] = test system: SF-295 CNS
# [24] = test system: CCRF-CEM leukemia
# [25] = test system: UACC-257 melanoma
# [26] = test system: MCF7 breast
# [27] = test system: PC-3 prostate
# [28] = test system: SNB-75 CNS
# [29] = test system: U251 CNS
# [30] = test system: OVCAR-3 ovarian
# [31] = test system: MALME-3M melanoma
# [32] = test system: DU-145 prostate
# [33] = test system: SNB-19 CNS
# [34] = test system: SW-620 colon
# [35] = test system: LOX IMVI melanoma
# [36] = test system: NCI-H460 lung
# [37] = test system: NCI-H226 lung
# [38] = test system: OVCAR-8 ovarian
# [39] = test system: NCI/ADR-RES ovarian
# [40] = test system: MDA-MB-231 breast
# [41] = test system: MDA-MB-435
# [42] = test system: EKVX NSCLC
# [43] = test system: SR leukemia
# [44] = test system: RXF 393 renal
# [45] = test system: CAKI-1 renal
# [46] = test system: SK-OV-3 ovarian
# [47] = test system: SF-539 CNS
# [48] = test system: SK-MEL-2 melanoma
# [49] = test system: HCC-2998 colon
# [50] = test system: SN12C renal
# [51] = test system: K-562 leukemia
# [52] = test system: HL-60(TB) leukemia
# [53] = test system: NCI-H522 lung
# [54] = test system: COLO 205 colon
# [55] = test system: BT-549 breast
# [56] = test system: NCI-H23 lung
# [57] = test system: HOP-62 NSCLC
# [58] = test system: T-47D breast
smiles,measurement,setting,value
C/C=C/CC(C)C(O)[C@H](NC(=O)[C@@H]1CCCN1C(=O)C(C)(C)NC(=O)CCCCCCCCC)C(=O)N[C@@](C)(CC)C(=O)N[C@@H](CCC(N)=O)C(=O)N[C@H](CCC(N)=O)C(=O)NC(C)(C)C(=O)N[C@@](C)(CC)C(=O)N[C@@H](CCC(N)=O)C(=O)N[C@H](CC(C)C)C(=O)N[C@H](CO)CC(C)C (stereo partly drawn) (Decanoyl-[Aib]P[X14][Iva]Q[dQ][Aib][Iva]Q[dL][Leu(ol)]),GI50,[1],0.0407 µM
same,TGI,[1],0.2 µM
same,GI50,[2],0.0627 µM
same,TGI,[2],2 µM
same,GI50,[3],0.103 µM
same,TGI,[3],1.47 µM
same,GI50,[4],0.284 µM
same,TGI,[4],1.44 µM
same,GI50,[5],0.0974 µM
same,TGI,[5],1.35 µM
same,GI50,[6],0.0675 µM
same,TGI,[6],1.53 µM
same,GI50,[7],0.281 µM
same,TGI,[7],1.36 µM
same,TGI,[8],0.0836 µM
same,GI50,[9],0.297 µM
same,TGI,[9],1.72 µM
same,GI50,[10],0.212 µM
same,TGI,[10],1.11 µM
same,GI50,[11],0.0825 µM
same,TGI,[11],1.87 µM
same,GI50,[12],0.0877 µM
same,TGI,[12],1.13 µM
same,GI50,[13],0.242 µM
same,TGI,[13],0.721 µM
same,GI50,[14],0.208 µM
same,TGI,[14],1.29 µM
same,GI50,[15],0.297 µM
same,TGI,[15],1.27 µM
same,GI50,[16],0.0956 µM
same,TGI,[16],1.16 µM
same,GI50,[17],0.0752 µM
same,TGI,[17],1.17 µM
same,GI50,[18],0.0615 µM
same,TGI,[18],1.32 µM
same,GI50,[19],0.087 µM
same,TGI,[19],1.2 µM
same,GI50,[20],0.259 µM
same,TGI,[20],1.14 µM
same,GI50,[21],0.406 µM
same,TGI,[21],1.75 µM
same,GI50,[22],0.0295 µM
same,TGI,[22],0.14 µM
same,GI50,[23],0.0488 µM
same,TGI,[23],0.754 µM
same,GI50,[24],0.152 µM
same,TGI,[24],1.18 µM
same,GI50,[25],0.0621 µM
same,TGI,[25],0.758 µM
same,GI50,[26],0.0594 µM
same,TGI,[26],1.16 µM
same,GI50,[27],0.0527 µM
same,TGI,[27],1.05 µM
same,GI50,[28],0.174 µM
same,TGI,[28],0.803 µM
same,GI50,[29],0.0548 µM
same,TGI,[29],1.2 µM
same,GI50,[30],0.0417 µM
same,TGI,[30],1.31 µM
same,GI50,[31],0.0309 µM
same,TGI,[31],0.643 µM
same,GI50,[32],0.318 µM
same,TGI,[32],1.53 µM
same,GI50,[33],0.134 µM
same,TGI,[33],1.35 µM
same,GI50,[34],0.0892 µM
same,TGI,[34],1.33 µM
same,GI50,[35],0.164 µM
same,TGI,[35],0.697 µM
same,GI50,[36],0.094 µM
same,TGI,[36],1.15 µM
same,GI50,[37],0.182 µM
same,TGI,[37],1.48 µM
same,GI50,[38],0.199 µM
same,TGI,[38],1.33 µM
same,GI50,[39],0.985 µM
same,TGI,[39],2.33 µM
same,GI50,[40],0.274 µM
same,TGI,[40],0.99 µM
same,GI50,[41],0.111 µM
same,TGI,[41],1.2 µM
same,GI50,[42],0.173 µM
same,TGI,[42],1.43 µM
same,GI50,[43],0.253 µM
same,TGI,[43],0.943 µM
same,GI50,[44],0.259 µM
same,TGI,[44],1.26 µM
same,GI50,[45],0.206 µM
same,TGI,[45],0.659 µM
same,GI50,[46],0.233 µM
same,TGI,[46],0.873 µM
same,GI50,[47],0.338 µM
same,TGI,[47],1.31 µM
same,GI50,[48],0.0604 µM
same,TGI,[48],0.688 µM
same,GI50,[49],0.107 µM
same,TGI,[49],1.6 µM
same,GI50,[50],0.211 µM
same,TGI,[50],1.11 µM
same,GI50,[51],0.0418 µM
same,TGI,[51],1.09 µM
same,GI50,[52],0.0291 µM
same,TGI,[52],0.114 µM
same,GI50,[53],0.055 µM
same,TGI,[53],0.72 µM
same,GI50,[54],0.049 µM
same,TGI,[54],0.187 µM
same,GI50,[55],0.304 µM
same,TGI,[55],0.829 µM
CN1CCN(c2ccc(Nc3nc(NCCNS(=O)(=O)c4ccc5ccccc5c4)c4sccc4n3)cc2)CC1,GI50,[1],3.27 µM
same,TGI,[1],11.3 µM
same,GI50,[56],13.3 µM
same,TGI,[56],26.9 µM
same,GI50,[2],2.21 µM
same,TGI,[2],5 µM
same,GI50,[3],11.7 µM
same,TGI,[3],24 µM
same,GI50,[4],2.69 µM
same,TGI,[4],8.16 µM
same,GI50,[5],3.31 µM
same,TGI,[5],12.3 µM
same,GI50,[6],21.5 µM
same,TGI,[6],37.3 µM
same,GI50,[57],15 µM
same,TGI,[57],29.2 µM
same,GI50,[7],11.5 µM
same,TGI,[7],30.2 µM
same,GI50,[8],3.31 µM
same,TGI,[8],16.1 µM
same,GI50,[9],14.1 µM
same,TGI,[9],46.8 µM
same,GI50,[10],12.4 µM
same,TGI,[10],25.5 µM
same,GI50,[11],10.3 µM
same,TGI,[11],28.2 µM
same,GI50,[12],8.51 µM
same,TGI,[12],20.7 µM
same,GI50,[13],19.2 µM
same,TGI,[13],34 µM
same,GI50,[14],11.5 µM
same,TGI,[14],23.7 µM
same,GI50,[15],2.31 µM
same,TGI,[15],5.59 µM
same,GI50,[16],9.03 µM
same,TGI,[16],26.8 µM
same,GI50,[17],16.2 µM
same,TGI,[17],35.7 µM
same,GI50,[18],1.88 µM
same,TGI,[18],3.4 µM
same,GI50,[19],2.21 µM
same,TGI,[19],5.64 µM
same,GI50,[20],4.55 µM
same,TGI,[20],24.1 µM
same,GI50,[21],11 µM
same,TGI,[21],23.4 µM
same,GI50,[22],2.46 µM
same,TGI,[22],6.18 µM
same,GI50,[23],11.8 µM
same,TGI,[23],24.1 µM
same,GI50,[24],3.52 µM
same,TGI,[24],13.9 µM
same,GI50,[25],1.84 µM
same,TGI,[25],3.56 µM
same,GI50,[26],4.04 µM
same,TGI,[26],15.7 µM
same,GI50,[27],11.4 µM
same,TGI,[27],31.1 µM
same,GI50,[28],11.6 µM
same,TGI,[28],24.2 µM
same,GI50,[29],3.21 µM
same,TGI,[29],12 µM
same,GI50,[30],10.7 µM
same,TGI,[30],28.1 µM
same,GI50,[31],1.8 µM
same,TGI,[31],3.28 µM
same,GI50,[32],12 µM
same,TGI,[32],25 µM
same,GI50,[33],16.3 µM
same,TGI,[33],30 µM
same,GI50,[34],6.41 µM
same,TGI,[34],21.8 µM
same,GI50,[35],1.75 µM
same,TGI,[35],3.36 µM
same,GI50,[36],12.1 µM
same,TGI,[36],27.2 µM
same,GI50,[37],14.2 µM
same,TGI,[37],28.3 µM
same,GI50,[38],6.65 µM
same,TGI,[38],19.9 µM
same,GI50,[39],14.8 µM
same,TGI,[39],38.3 µM
same,GI50,[40],3.87 µM
same,TGI,[40],14.8 µM
same,GI50,[41],3.34 µM
same,TGI,[41],11.8 µM
same,GI50,[42],13 µM
same,TGI,[42],26.3 µM
same,GI50,[43],2.57 µM
same,TGI,[43],7.42 µM
same,GI50,[44],2.33 µM
same,TGI,[44],6.58 µM
same,GI50,[45],3.87 µM
same,TGI,[45],15.2 µM
same,GI50,[46],19.4 µM
same,TGI,[46],35.6 µM
same,GI50,[47],1.91 µM
same,TGI,[47],4.05 µM
same,GI50,[48],19.6 µM
same,TGI,[48],36.1 µM
same,GI50,[49],3.34 µM
same,TGI,[49],12.5 µM
same,GI50,[50],13.1 µM
same,TGI,[50],26.3 µM
same,GI50,[51],2.27 µM
same,TGI,[51],7.15 µM
same,GI50,[52],1.99 µM
same,TGI,[52],4.04 µM
same,GI50,[58],3.71 µM
same,TGI,[58],16.9 µM
same,GI50,[53],7.16 µM
same,TGI,[53],21.6 µM
same,GI50,[54],2.22 µM
same,TGI,[54],4.99 µM
same,GI50,[55],12.4 µM
same,TGI,[55],24.9 µM
